US20160271157A1, “BETA-CATENIN” (UCL BUSINESS PLC, priority 2013, published 2016)

Tested on: Wnt induced calcium release
Assay: Wnt induced [Ca2+]i release after preincubation with thapsigargin or membrane potential regulating compounds
Type: cell-based
Details: PC3 cells, thapsigargin 5 μM for 15 min; Wnt5A 100 ng/ml, Wnt9B 200 ng/ml, Wnt10B 200 ng/ml
Method: The imaging protocol was developed in the inventor's laboratory and has been described in detail, elsewhere (Wang at al., (2010) PLoS ONE 5, e10456). Briefly, 100000-200000 PC3, MCF7, 253J or Cos 7 cells were plated on 35 mm FluoroDish (WPI) and grown for 48 h; calcium indicators Fluo-4 (Invitrogen) and FuraRed (Invitrogen) at 1 ng/ml were added to FluoroDish containing only 1 ml of culture medium and incubated for 15-20 min at 37° C. The culture medium was removed and washed (×2) and replaced with 1 ml PBS. Live cell calcium Imaging was performed on an Olympus FluoView FV 1000 confocal microscope (Olympus KeyMed) equipped with a 20× dry objective (numerical aperture=0.75). Calcium indicators were excited with an argon laser line (488 nm) and emissions recorded in the green channel (500-560 nm) for Fluo-4 and red channel (600-700 nm) for FuraRed after addition of vehicle control (PBS) or Wnt X (30-600 ng/ml). Images were acquired every 1.1 or 2.2 seconds for up to 600-800s; image and data acquisition was performed using FluoView 1000 software (Olympus, UK). Fluorescent intensity was measured and data exported as a tab delimited file for further analysis using a spreadsheet. All imaging experiments were performed in duplicate; intracellular calcium at 100 ng/ml was measured in at least 3-12 different passages (passage numbers 25 to 37) of cell line for each Wnt ligand. Wnt 11 was tested in at least 5 different passages at 3 different concentrations. […]
To measure the effect of changes in membrane potential on [Ca^2+]i release using the protocol described above, in some experiments, external solution (PBS) was substituted with varying concentrations of KCl. In other experiments chemical inhibitors of K^+ channels such as TEA, CsCl or tolbutamide (Sigma-Aldrich) were added to the cells grown on FluoroDish, at 37° C., at least 5 min prior to addition of Wnt ligands.
After image acquisition, regions of interest (ROI) were drawn over individual PC3 cells (up to 25) in a single frame and calcium intensity measurements were made using FluoView 1000 software (Olympus, UK). The measurements were exported as a tab delimited file into a spreadsheet for further analysis and Fluo4/Fura Red ratios were calculated. The waveform, a product of the ratio of Fluo4 and FuraRed over the period of measurement was used to measure the kinetics of the activation of [Ca^2+]i release in PC3 cells, in response to different Wnt ligands. The time constants (rise, dwell and fall times) were calculated by first fitting the Fluo4/FuraRed ratio to a single Gaussian function (Origin Lab Corp., MA); a lower (10%) and upper (90%) amplitude thresholding method was then used to calculate the time constants (s). Statistical significance was calculated using Mann Whitney U test.

Compound: C/C=C(/C)C(=O)O[C@H]1C(C)=C2[C@H]([C@@H]1OC(=O)CCCCCCC)[C@@](C)(OC(C)=O)C[C@H](OC(=O)CCC)[C@@]1(O)[C@H]2OC(=O)[C@@]1(C)O [thapsigargin, reference compound]
- increase in [Ca2+]i in response to Wnt ligands (5A, 9B and 10B) after thapsigargin: abolished
